The record followed here is patent publication US20140024683A1, “CHLORIDE CHANNEL AND CHLORIDE TRANSPORTER MODULATORS FOR THERAPY IN SMOOTH MUSCLE DISEASES” (priority 2011, published 2014).

Experiment [1] relates to guinea pig tracheal rings. As to the kind of experiment: Relaxation of the maintenance phase of a pre-established acetylcholine contraction, guinea pig tracheal rings. The note with it: alone; pre-contracted with EC50 acetylcholine. As to the method: (§1) Animal protocols were approved by the Columbia University Animal Care and Use Committee. Male Hartley guinea pigs weighing approximately 400 g were anesthetized with intraperitoneal injection of sodium pentobarbital (100 mg/kg). Trachea were removed and transferred to ice cold Krebs-Henseleit (KH) buffer of the following composition (in mM): NaCl 118, KCl 5.6, CaCl2 0.5, MgSO4 0.24, NaH2PO4 1.3, NaHCO3 25, glucose 5.6, pH 7.4. Epithelial-denuded tracheal rings were prepared using a dissecting microscope. Epithelium was removed by gently passing cotton fibers through the lumen of the tracheal rings. The rings were suspended in 4 mL-water jacketed organ baths (37° C.: Radnoti Glass Technology, Monrovia, Calif.) and connected to a Grass FT03 force transducer (Grass Telefactor, West Warwick, R.I.) using silk sutures. The transducers were coupled to the computer with BioPac hardware and data was collected using Acqknowledge 7.3.3 software (BioPac Systems, Goleta, Calif.). KH buffer was bubbled with a gas mixture of 95% oxygen and 5% carbon dioxide and buffer was exchanged every 15 minutes for 1 hour during equilibration of tracheal rings at 1 g resting tension. […].
Chloride channel blockers were then tested against the plateau phase of an established acetylcholine contraction. […]

Experiment [2] deals with guinea pig tracheal rings. The experiment in a line: Relaxation of potassium gluconate contraction in guinea pig tracheal rings. The following applies: 100 μM, 80 mM potassium gluconate. Here is the method:
as §1
Many chloride channel blockers are known to also stimulate potassium channels (Greenwood et al., 2007). Thus, we performed additional studies in the presence of a large extracellular concentration of potassium to ensure that our findings of compound 1 or 13 inhibiting a TEA-induced depolarizing contraction were not due to these compounds opening a potassium channel.

With `CCCCNc1cc(C(=O)O)cc(S(N)(=O)=O)c1Oc1ccccc1` [bumetanide], the “relaxation of established acetylcholine contraction” value in experiment [1] is on record as “significantly relaxed an acetylcholine contraction”.
For `O=C(O)c1cccnc1Nc1cccc(C(F)(F)F)c1` [niflumic acid], the “percent of potassium gluconate-induced contraction at 30 minutes” value was 47.36%±4.6 in experiment [2] and 47.4%±4.6 in experiment [2] (listed as NFA).
